Tests used:
Format in all cases: in vivo
[1] = tested on: Plutella xylostella (Diamond Back Moth); assay: Example B1: activity against Plutella xylostella, artificial diet in 24-well plates; conditions: 120 h, application rate 200 ppm, L2 larvae on artificial diet, 5 days after infestation, read-out: effect in at least one of the two categories (mortality or growth inhibition)
Method: 24-well microtiter plates with artificial diet were treated with aqueous test solutions prepared from 10'000 ppm DMSO stock solutions by pipetting. After drying, the plates were infested with L2 larvae (10 to 15 per well). The samples were assessed for mortality and growth inhibition in comparison to untreated samples 5 days after infestation.

[2] = tested on: Myzus persicae (Green Peach Aphid); assay: Example B2: activity against Myzus persicae, sprayed sunflower leaf discs; conditions: foliar, 144 h, application rate 200 ppm, aphid population of mixed ages, 6 days after infestation
Method: Sunflower leaf discs were placed on agar in a 24-well microtiter plate and sprayed with aqueous test solutions prepared from 10'000 ppm DMSO stock solutions. After drying, the leaf discs were infested with an aphid population of mixed ages. The samples were assessed for mortality 6 days after infestation.

[3] = tested on: Myzus persicae (Green Peach Aphid); assay: Example B3: activity against Myzus persicae, roots of pea seedlings in test solution; conditions: 144 h, test rate 24 ppm, roots of infested pea seedlings in test solution, 6 days
Method: Roots of pea seedlings infested with an aphid population of mixed ages were placed directly in the aqueous test solutions prepared from 10'000 DMSO stock solutions. The samples were assessed for mortality 6 days after placing seedlings in test solutions.

[4] = tested on: Frankliniella occidentalis (Western Flower Thrips); assay: Example B4: activity against Frankliniella occidentalis, sprayed sunflower leaf discs; conditions: foliar, 168 h, application rate 200 ppm, population of mixed ages, 7 days after infestation
Method: Sunflower leaf discs were placed on agar in 24-well microtiter plates and sprayed with aqueous test solutions prepared from 10'000 DMSO stock solutions. After drying the leaf discs were infested with a Frankliniella population of mixed ages. The samples were assessed for mortality 7 days after infestation.

[5] = tested on: Bemisia tabaci (Cotton White Fly); assay: Example B5: activity against Bemisia tabaci, sprayed cotton leaf discs; conditions: foliar, 144 h, application rate 200 ppm, adult white flies, 6 days after incubation
Method: Cotton leaf discs were placed on agar in 24-well microtiter plates and sprayed with aqueous test solutions prepared from 10'000 ppm DMSO stock solutions. After drying the leaf discs were infested with adult white flies. The samples were checked for mortality 6 days after incubation.

[6] = tested on: Euschistus heros (Neotropical Brown Stink Bug); assay: Example B6: activity against Euschistus heros, sprayed soybean leaf; conditions: 120 h, application rate 200 ppm, N-2 nymphs, 5 days after infestation, read-out: effect in at least one of the two categories (mortality or growth inhibition)
Method: Soybean leaf on agar in 24-well microtiter plates were sprayed with aqueous test solutions prepared from 10'000 ppm DMSO stock solutions. After drying the leaf were infested with N-2 nymphs. The samples were assessed for mortality and growth inhibition in comparison to untreated samples 5 days after infestation.

[7] = tested on: Spodoptera littoralis (Egyptian Cotton Leaf Worm); assay: Example B7: activity against Spodoptera littoralis, sprayed cotton leaf discs; conditions: foliar, 72 h, application rate 200 ppm, L1 larvae, 3 days after infestation
Method: Cotton leaf discs were placed onto agar in 24-well microtiter plates and sprayed with aqueous test solutions prepared from 10'000 ppm DMSO stock solutions. After drying the leaf discs were infested with five L1 larvae. The samples were assessed for mortality, anti-feeding effect, and growth inhibition in comparison to untreated samples 3 days after infestation. Control of Spodoptera littoralis by a test sample is given when at least one of the categories mortality, anti-feedant effect, and growth inhibition is higher than the untreated sample.

[8] = tested on: Diabrotica Balteata (Corn Root Worm); assay: Example B7: activity against Diabrotica balteata, sprayed maize sprouts; conditions: 96 h, application rate 200 ppm, L2 larvae, 4 days after infestation, read-out: effect in at least one of the two categories (mortality or growth inhibition)
Method: Maize sprouts placed onto an agar layer in 24-well microtiter plates were treated with aqueous test solutions prepared from 10'000 ppm DMSO stock solutions by spraying. After drying, the plates were infested with L2 larvae (6 to 10 per well). The samples were assessed for mortality and growth inhibition in comparison to untreated samples 4 days after infestation.

CCS(=O)(=O)c1cc(N=S(C)(C)=O)cnc1-c1cn2cnc(C(F)(F)F)cc2n1 [P1, [5-ethylsulfonyl-6-[7-(trifluoromethyl)imidazo[1,2-c]pyrimidin-2-yl]-3-pyridyl]imino-dimethyl-oxo-λ^6-sulfane]
≥ 80%: percent effect (mortality or growth inhibition) at 200 ppm [1] | mortality at 200 ppm [2] | mortality at 24 ppm [3] | mortality at 200 ppm [4] | mortality at 200 ppm [5] | percent effect (mortality or growth inhibition) at 200 ppm [6] | percent control (mortality, anti-feedant effect or growth inhibition) at 200 ppm [7]

CCS(=O)(=O)c1cc(N=S2(=O)CCOCC2)cnc1-c1nc2cc(C(F)(F)F)ncc2n1C [P5, 4-[[5-ethylsulfonyl-6-[3-methyl-6-(trifluoromethyl)imidazo[4,5-c]pyridin-2-yl]-3-pyridyl]imino]-1,4-oxathiane 4-oxide]
≥ 80%: percent effect (mortality or growth inhibition) at 200 ppm [1] | mortality at 200 ppm [2] | mortality at 24 ppm [3] | mortality at 200 ppm [4] | mortality at 200 ppm [5] | percent effect (mortality or growth inhibition) at 200 ppm [6] | percent control (mortality, anti-feedant effect or growth inhibition) at 200 ppm [7]

CCS(=O)(=O)c1cc(N=S2(=O)CCCC2)cnc1-c1nc2cc(C(F)(F)F)ncc2n1C [P6, 1-[[5-ethylsulfonyl-6-[3-methyl-6-(trifluoromethyl)imidazo[4,5-c]pyridin-2-yl]-3-pyridyl]imino]thiolane 1-oxide]
≥ 80%: percent effect (mortality or growth inhibition) at 200 ppm [1] | mortality at 200 ppm [2] | mortality at 24 ppm [3] | mortality at 200 ppm [4] | mortality at 200 ppm [5] | percent effect (mortality or growth inhibition) at 200 ppm [6]

CCS(=O)(=O)c1cc(N=S(C)(=O)C2CC2)cnc1-c1cn2cnc(C(F)(F)F)cc2n1 (stereo not shown) [P8, cyclopropyl-[[5-ethylsulfonyl-6-[7-(trifluoromethyl)imidazo[1,2-c]pyrimidin-2-yl]-3-pyridyl]imino]-methyl-oxo-λ^6-sulfane]
≥ 80%: percent effect (mortality or growth inhibition) at 200 ppm [1] | mortality at 200 ppm [2] | mortality at 24 ppm [3] | mortality at 200 ppm [4] | mortality at 200 ppm [5] | percent effect (mortality or growth inhibition) at 200 ppm [6] | percent effect (mortality or growth inhibition) at 200 ppm [8] | percent control (mortality, anti-feedant effect or growth inhibition) at 200 ppm [7]

CCS(=O)(=O)c1cc(N=S(C)(=O)C2CC2)cnc1-n1cc2cnc(C(F)(F)F)cc2n1 (stereo not shown) [P12, cyclopropyl-[[5-ethylsulfonyl-6-[6-(trifluoromethyl)pyrazolo[4,3-c]pyridin-2-yl]-3-pyridyl]imino]-methyl-oxo-λ^6-sulfane]
≥ 80%: percent effect (mortality or growth inhibition) at 200 ppm [1] | mortality at 200 ppm [2] | mortality at 200 ppm [4] | mortality at 200 ppm [5] | percent effect (mortality or growth inhibition) at 200 ppm [6] | percent effect (mortality or growth inhibition) at 200 ppm [8] | percent control (mortality, anti-feedant effect or growth inhibition) at 200 ppm [7]

CCS(=O)(=O)c1cc(N=S2(=O)CCC2)cnc1-c1cn2cnc(C(F)(F)F)cc2n1 [P13, 1-[[5-ethylsulfonyl-6-[7-(trifluoromethyl)imidazo[1,2-c]pyrimidin-2-yl]-3-pyridyl]imino]thietane 1-oxide]
≥ 80%: percent effect (mortality or growth inhibition) at 200 ppm [1] | mortality at 200 ppm [2] | mortality at 24 ppm [3] | mortality at 200 ppm [4] | mortality at 200 ppm [5] | percent effect (mortality or growth inhibition) at 200 ppm [6] | percent control (mortality, anti-feedant effect or growth inhibition) at 200 ppm [7]

CCS(=O)(=O)c1cc(N=S(C)(C)=O)ccc1-c1cn2cnc(C(F)(F)F)cc2n1 [P14, [3-ethylsulfonyl-4-[7-(trifluoromethyl)imidazo[1,2-c]pyrimidin-2-yl]phenyl]imino-dimethyl-oxo-λ^6-sulfane]
≥ 80%: percent effect (mortality or growth inhibition) at 200 ppm [1] | mortality at 200 ppm [2] | mortality at 24 ppm [3] | mortality at 200 ppm [5] | percent effect (mortality or growth inhibition) at 200 ppm [6]

CCS(=O)(=O)c1cc(N=S(C)(=O)C2CC2)ccc1-c1cn2cnc(C(F)(F)F)cc2n1 (stereo not shown) [P15, cyclopropyl-[3-ethylsulfonyl-4-[7-(trifluoromethyl)imidazo[1,2-c]pyrimidin-2-yl]phenyl]imino-methyl-oxo-λ^6-sulfane]
≥ 80%: percent effect (mortality or growth inhibition) at 200 ppm [1] | mortality at 200 ppm [2] | percent effect (mortality or growth inhibition) at 200 ppm [6] | percent effect (mortality or growth inhibition) at 200 ppm [8]

CCS(=O)(=O)c1cc(N=S(C)C)cnc1-c1nc2cc(C(F)(F)F)ncc2n1C [P17, [5-ethylsulfonyl-6-[3-methyl-6-(trifluoromethyl)imidazo[4,5-c]pyridin-2-yl]-3-pyridyl]imino-dimethyl-λ^4-sulfane]
≥ 80%: mortality at 200 ppm [2] | percent effect (mortality or growth inhibition) at 200 ppm [6] | percent effect (mortality or growth inhibition) at 200 ppm [8]

CCS(CC)=Nc1cnc(-c2nc3cc(C(F)(F)F)ncc3n2C)c(S(=O)(=O)CC)c1 [P18]
≥ 80%: mortality at 200 ppm [2] | percent effect (mortality or growth inhibition) at 200 ppm [6] | percent effect (mortality or growth inhibition) at 200 ppm [8]

CCS(=O)(=O)c1cc(N=S(C)(=O)CC)cnc1-c1nc2cc(C(F)(F)F)ncc2n1C (stereo not shown) [P19, ethyl-[[5-ethylsulfonyl-6-[3-methyl-6-(trifluoromethyl)imidazo[4,5-c]pyridin-2-yl]-3-pyridyl]imino]-methyl-oxo-λ^6-sulfane]
≥ 80%: percent effect (mortality or growth inhibition) at 200 ppm [1] | mortality at 200 ppm [2] | mortality at 24 ppm [3] | mortality at 200 ppm [4] | mortality at 200 ppm [5] | percent effect (mortality or growth inhibition) at 200 ppm [6] | percent effect (mortality or growth inhibition) at 200 ppm [8]

CCSc1cc(N=S(C)(C)=O)cnc1-c1nc2cc(C(F)(F)F)ncc2n1C [P20, [5-ethylsulfanyl-6-[3-methyl-6-(trifluoromethyl)imidazo[4,5-c]pyridin-2-yl]-3-pyridyl]imino-dimethyl-oxo-λ^6-sulfane]
≥ 80%: mortality at 200 ppm [2] | mortality at 24 ppm [3] | mortality at 200 ppm [4] | percent effect (mortality or growth inhibition) at 200 ppm [6] | percent effect (mortality or growth inhibition) at 200 ppm [8]

CCS(=O)(=O)c1cc(N=S2(=O)CCOCC2)ccc1-c1nc2cc(C(F)(F)F)ncc2n1C [P21, 4-[3-ethylsulfonyl-4-[3-methyl-6-(trifluoromethyl)imidazo[4,5-c]pyridin-2-yl]phenyl]imino-1,4-oxathiane 4-oxide]
≥ 80%: mortality at 24 ppm [3] | mortality at 200 ppm [5] | percent effect (mortality or growth inhibition) at 200 ppm [6]

CCS(=O)(=O)c1cc(N=S2(=O)CCOCC2)cnc1-c1cn2cnc(C(F)(F)F)cc2n1 [P22, 4-[[5-ethylsulfonyl-6-[7-(trifluoromethyl)imidazo[1,2-c]pyrimidin-2-yl]-3-pyridyl]imino]-1,4-oxathiane 4-oxide]
≥ 80%: percent effect (mortality or growth inhibition) at 200 ppm [1] | mortality at 200 ppm [2] | mortality at 24 ppm [3] | mortality at 200 ppm [4] | mortality at 200 ppm [5] | percent effect (mortality or growth inhibition) at 200 ppm [6] | percent control (mortality, anti-feedant effect or growth inhibition) at 200 ppm [7]

Reference: patent publication US10961248B2, “Pesticidally active heterocyclic derivatives with sulfur containing substituents” (SYNGENTA PARTICIPATIONS AG, priority 2016, dated 2021)
